Measured values from patent US5552411A, “Sulfonylquinolines as central nervous system and cardiovascular agents” (Warner-Lambert Company, priority 1995, dated 1996).

Target: T1, Human Neuropeptide Y1 Receptors (Homo sapiens, UniProt P25929)
T1 construct: 50 μL SK-N-MC preparation containing 50 μg/tube membrane protein; host or cells: SK-N-MC human neuroblastoma cells (membranes)
T1 sequence (P25929 1-384): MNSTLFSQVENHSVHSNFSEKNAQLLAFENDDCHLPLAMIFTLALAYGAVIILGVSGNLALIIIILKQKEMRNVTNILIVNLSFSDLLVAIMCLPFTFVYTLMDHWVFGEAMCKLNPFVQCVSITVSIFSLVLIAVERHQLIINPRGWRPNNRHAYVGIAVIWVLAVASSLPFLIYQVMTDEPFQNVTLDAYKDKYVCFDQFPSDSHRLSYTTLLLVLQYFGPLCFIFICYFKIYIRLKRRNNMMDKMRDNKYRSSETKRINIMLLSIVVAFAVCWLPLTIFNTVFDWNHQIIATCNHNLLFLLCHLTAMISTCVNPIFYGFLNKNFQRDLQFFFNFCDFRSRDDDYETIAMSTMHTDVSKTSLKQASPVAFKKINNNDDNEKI
Assay: Receptor binding: inhibition of [^125 I]Peptide YY binding to human neuropeptide Y1 receptors (SK-N-MC membranes)
Conditions: not given
Procedure: The compounds of Formula I are valuable neuropeptide Y1 antagonists. The compounds of Formula I were tested for their ability to bind to the neuropeptide Y1 receptor subtype as measured by their inhibition of [^125 I]Peptide YY to human NPY1 receptors.
Human neuroblastoma cells, SK-N-MC, obtained from American Type Culture Collection were grown in Dulbecco's modified Eagle medium (Gibco) containing 10% fetal bovine serum and 100 units per mL/100 μg/mL penicillin/streptomycin (Gibco). After cells were confluent, growth media was replaced with fresh media and cells were allowed to continue growing for an additional 24 hours. Cells were then harvested in a buffer consisting of the following: 25 mM Tris(hydroxymethyl)amino methane (Tris), pH 7.4, 6 mM MgCl2, 250 μg/mL bacitracin, 250 μg/mL aprotinin, 250 μg/mL leupeptin, 250 μg/mL 4-(2-aminoethyl)-benzenesulfonylfluoride hydrochloride (Peflabloc) (Pentapharm AG). Growth media was removed and cells were lifted from the flasks with Dulbecco's phosphate buffered saline (D-PBS) containing 0.02% ethylenediaminetetraacetic acid (EDTA). Cells were pelleted and homogenized using a polytron, and broken membranes were pelleted by centrifugation at 18,000 rpm for 10 minutes at 4° C. The pelleted membranes were resuspended in the above buffer and frozen at […].
D-PBS (Gibco) pH 7.4, containing 0.5 g/L bacitracin and […] bovine serum albumin (BSA), was used in the preparation of compound and radiolabel. Each assay tube consisted of the following: […] of compound or buffer, 100 μL[^125 I]-PYY (Peptide YY) (30 pM), and 50 μL SK-N-MC preparation containing 50 μg/tube membrane protein for a total volume of 250 μL/tube. Non-specific binding was defined by the addition of 300 nM final concentration of neuropeptide Y. After addition of all reagents, tubes were shaken while incubating for 60 minutes at room temperature. The assay was terminated by filtering through a Whatman GF/C filter previously saturated with 0.1% polyethylenimine in 10 mM Tris, pH 7.5 containing 0.1% BSA. Filters were punched from the filter mat, placed in tubes, and counted for 1 minute using a gamma counter. The Ki was determined using the Graph PAD data analysis software program.

Row | Compound | Ki [µM]
1 | Nc1cc(S(=O)(=O)c2ccc([N+](=O)[O-])cc2)c([N+](=O)[O-])c2cccnc12 [Example 8, 5-Nitro-6-(4-nitro-benzenesulfonyl)-quinolin-8-ylamine] | 1

Same assay, conditions: 30 pM [^125 I]-PYY, SK-N-MC membranes, 60 minutes, room temperature, pH 7.4; read-out: Inhibition of [^125 I]Peptide YY Binding to Human Neuropeptide Y1 Receptors Ki

Row | Compound | Ki [µM]
2 | Nc1cc(S(=O)(=O)c2ccccc2Cl)c([N+](=O)[O-])c2cccnc12 [Example 13, 6-(2-Chloro-benzenesulfonyl)-5-nitro-quinolin-8-ylamine] | 0.093
3 | Nc1cc(S(=O)(=O)c2c(Cl)cccc2Cl)c([N+](=O)[O-])c2cccnc12 [Example 23, 6-(2,6-Dichloro-benzenesulfonyl)-5-nitro-quinolin-8-ylamine] | 0.273
4 | Nc1cc(S(=O)(=O)c2ccc(O)cc2)c([N+](=O)[O-])c2cccnc12 [Example 10, 4-(8-Amino-5-nitro-quinoline-6-sulfonyl)-phenol] | 0.136
5 | Nc1cc(S(=O)(=O)c2ccccc2C(F)(F)F)c([N+](=O)[O-])c2cccnc12 [Example 29, 5-Nitro-6-(2-trifluoromethyl-benzenesulfonyl)-quinolin-8-ylamine] | 0.084
6 | CC(C)c1cccc(C(C)C)c1S(=O)(=O)c1cc(N)c2ncccc2c1[N+](=O)[O-] [Example 28, 6-(2,6-Diisopropyl-benzenesulfonyl)-5-nitro-quinolin-8-ylamine] | 0.048
7 | CC(C)c1ccccc1S(=O)(=O)c1cc(N)c2ncccc2c1[N+](=O)[O-] [Example 19, 6-(2-Isopropyl-benzenesulfonyl)-5-nitro-quinolin-8-ylamine] | 0.048
8 | Cc1ccc(S(=O)(=O)c2cc(N)c3ncccc3c2[N+](=O)[O-])c(C)c1 [Example 22, 6-(2,4-Dimethyl-benzenesulfonyl)-5-nitro-quinolin-8-ylamine] | 0.222
9 | Nc1cc(S(=O)(=O)c2cccc3ccccc23)c([N+](=O)[O-])c2cccnc12 [Example 20, 6-(Naphthalene-1-sulfonyl)-5-nitro-quinolin-8-ylamine] | 0.046
10 | Nc1cc(S(=O)(=O)c2ccc3ccccc3c2)c([N+](=O)[O-])c2cccnc12 [Example 5, 6-(Naphthalene-2-sulfonyl)-5-nitro-quinolin-8-ylamine] | 1.2
11 | CC(C)(C)c1ccc(S(=O)(=O)c2cc(N)c3ncccc3c2[N+](=O)[O-])cc1 [Example 7, 6-(4-tert-Butyl-benzenesulfonyl)-5-nitro-quinolin-8-ylamine] | 3.2
12 | CC(=O)Nc1ccccc1S(=O)(=O)c1cc(N)c2ncccc2c1[N+](=O)[O-] [Example 25, N-[2-(8-Amino-5-nitro-quinoline-6-sulfonyl)-phenyl]-acetamide] | 0.59
13 | Cc1cccc(C)c1S(=O)(=O)c1cc(N)c2ncccc2c1[N+](=O)[O-] [Example 14, 6-(2,6-Dimethyl-benzenesulfonyl)-5-nitro-quinolin-8-ylamine] | 0.295
14 | Nc1cc(S(=O)(=O)c2ccccc2Br)c([N+](=O)[O-])c2cccnc12 [Example 24, 6-(2-Bromo-benzenesulfonyl)-5-nitro-quinolin-8-ylamine] | 0.234
15 | N#Cc1ccc(S(=O)(=O)c2cc(N)c3ncccc3c2[N+](=O)[O-])cc1 [Example 11, 4-(8-Amino-5-nitro-quinoline-6-sulfonyl)-benzonitrile] | 0.854
16 | Nc1cc(S(=O)(=O)c2ccccc2F)c([N+](=O)[O-])c2cccnc12 [Example 27, 6-(2-Fluoro-benzenesulfonyl)-5-nitro-quinolin-8-ylamine] | 0.058
17 | Cc1ccc(C)c(S(=O)(=O)c2cc(N)c3ncccc3c2[N+](=O)[O-])c1 [Example 6, 6-(2,5-Dimethyl-benzenesulfonyl)-5-nitro-quinolin-8-ylamine] | 0.148
18 | CC(C)(C)c1ccccc1S(=O)(=O)c1cc(N)c2ncccc2c1[N+](=O)[O-] [Example 31, 6-(2-tert-Butyl-benzenesulfonyl)-5-nitro-quinolin-8-ylamine] | 1.4
19 | CCc1ccccc1S(=O)(=O)c1cc(N)c2ncccc2c1[N+](=O)[O-] [Example 18, 6-(2-Ethyl-benzenesulfonyl)-5-nitro-quinolin-8-ylamine] | 0.129
20 | Nc1cc(S(=O)(=O)c2cccc(Cl)c2Cl)c([N+](=O)[O-])c2cccnc12 [Example 26, 6-(2,3-Dichloro-benzenesulfonyl)-5-nitro-quinolin-8-ylamine] | 0.093
21 | Nc1cc(S(=O)(=O)c2cc(Cl)ccc2Cl)c([N+](=O)[O-])c2cccnc12 [Example 30, 6-(2,5-Dichloro-benzenesulfonyl)-5-nitro-quinolin-8-ylamine] | 0.283

The remaining lines, values ahead:

Row | Ki [µM] | Compound
22 | 1.14 | COc1ccc(S(=O)(=O)c2cc(N)c3ncccc3c2[N+](=O)[O-])cc1 [Example 3, 6-(4-Methoxy-benzenesulfonyl)-5-nitro-quinolin-8-ylamine]
23 | 0.311 | COc1cccc(S(=O)(=O)c2cc(N)c3ncccc3c2[N+](=O)[O-])c1 [Example 17, 6-(3-Methoxy-benzenesulfonyl)-5-nitro-quinolin-8-ylamine]
24 | 1.75 | Nc1cc(S(=O)(=O)c2ccc(Cl)cc2)c([N+](=O)[O-])c2cccnc12 [Example 2, 6-(4-Chloro-benzenesulfonyl)-5-nitro-quinolin-8-ylamine]
25 | 0.119 | Cc1ccccc1S(=O)(=O)c1cc(N)c2ncccc2c1[N+](=O)[O-] [Example 12, 5-Nitro-6-(toluene-2-sulfonyl)-quinolin-8-ylamine]
26 | 0.49 | COc1ccccc1S(=O)(=O)c1cc(N)c2ncccc2c1[N+](=O)[O-] [Example 21, 6-(2-Methoxy-benzenesulfonyl)-5-nitro-quinolin-8-ylamine]
27 | 0.373 | Cc1cccc(S(=O)(=O)c2cc(N)c3ncccc3c2[N+](=O)[O-])c1 [Example 9, 5-Nitro-6-(toluene-3-sulfonyl)-quinolin-8-ylamine]
28 | 0.297 | Nc1cc(S(=O)(=O)c2ccccc2)c([N+](=O)[O-])c2cccnc12 [Example 1, 6-Benzenesulfonyl-5-nitro-quinolin-8-ylamine]
29 | 0.594 | Cc1ccc(S(=O)(=O)c2cc(N)c3ncccc3c2[N+](=O)[O-])cc1 [Example 4, 5-Nitro-6-(toluene-4-sulfonyl)-quinolin-8-ylamine]
30 | 0.892 | Nc1cc(S(=O)(=O)c2cccc(Cl)c2)c([N+](=O)[O-])c2cccnc12 [Example 15, 6-(3-Chloro-benzenesulfonyl)-5-nitro-quinolin-8-ylamine]
31 | 0.603 | Nc1cc(S(=O)(=O)c2ccc(F)cc2)c([N+](=O)[O-])c2cccnc12 [Example 16, 6-(4-Fluoro-benzenesulfonyl)-5-nitro-quinolin-8-ylamine]

System: rats
Assay: not given
Conditions: administration into the central nervous system; cited from earlier work

Row | Compound | effect on feeding
32 | NPY: Neuropeptide Y (NPY), involved in the control of feeding in mammals; agonist in the cAMP assay | dramatic increase in feeding
